Results taken from the NIST ThermoML archive (doi:10.1021/je050170x).

How the values were obtained:
[1] = refractive index (Na D-line) (dimensionless); conditions: 101.33 kPa, Liquid, Standard Abbe refractometry
[2] = for surface tension liquid-gas: Wilhelmy-plate method; for mass density / viscosity: 101.33 kPa, Liquid; for viscosity: Capillary tube (Ostwald / Ubbelohde) method

CCOC(=O)Cc1ccccc1 [ethyl phenylacetate]
Conditions	mass density, [2] [kg/m3]	refractive index, [1]	surface tension liquid-gas, [2] [mN/m]	viscosity, [2] [mPa·s]
288.15 K	1036.35	1.49971	35.9	3.002
298.15 K	1026.96	1.49513	34.6	2.384
308.15 K	1017.6	1.49063	33.5	1.948
318.15 K	1008.26	1.48583	32.8	1.624
328.15 K	998.93	1.48149	31.6	1.383
338.15 K	989.61	1.47688	30.6	1.191
348.15 K	980.28	1.47224	29.4	1.037
358.15 K	970.95	1.46747	28.6	0.908

CCOC(=O)c1ccccc1 [ethyl benzoate]
Conditions	mass density, [2] [kg/m3]	refractive index, [1]	surface tension liquid-gas, [2] [mN/m]	viscosity, [2] [mPa·s]
288.15 K	1050.78	1.5076	35.7	2.444
298.15 K	1041.42	1.50328	34.6	1.971
308.15 K	1032.07	1.49863	33.3	1.623
318.15 K	1022.73	1.49391	32.5	1.368
328.15 K	1013.4	1.48946	31.5	1.169
338.15 K	1004.06	1.4847	30.2	1.016
348.15 K	994.7	1.48004	29.3	0.89
358.15 K	985.31	1.47526	28.4	0.784

CCCCCCCC(=O)OCC [ethyl octanoate]
Conditions	mass density, [2] [kg/m3]	refractive index, [1]	surface tension liquid-gas, [2] [mN/m]	viscosity, [2] [mPa·s]
288.15 K	870.79	1.41991	27.2	1.697
298.15 K	862.15	1.4156	26.4	1.411
308.15 K	853.52	1.41137	25.5	1.193
318.15 K	844.87	1.40702	24.7	1.027
328.15 K	836.21	1.40294	23.8	0.892
338.15 K	827.53	1.39857	22.8	0.784
348.15 K	818.58	1.39418	22	0.694
358.15 K	810.05	1.38974	21.4	0.617

CCOC(=O)c1ccccc1O [ethyl 2-hydroxybenzoate]
Conditions	mass density, [2] [kg/m3]	refractive index, [1]	surface tension liquid-gas, [2] [mN/m]	viscosity, [2] [mPa·s]
288.15 K	1134.72	1.52481	37.5	3.694
298.15 K	1125	1.52022	36.3	2.831
308.15 K	1115.29	1.51573	35.2	2.253
318.15 K	1105.6	1.51116	34.4	1.842
328.15 K	1095.94	1.50646	33.4	1.53
338.15 K	1086.24	1.50191	32	1.305
348.15 K	1076.6	1.49744	31	1.126
358.15 K	1066.83	1.49296	30.2	0.984

CCOC(=O)CC(C)C [ethyl 3-methylbutanoate]
Conditions	mass density, [2] [kg/m3]	refractive index, [1]	surface tension liquid-gas, [2] [mN/m]	viscosity, [2] [mPa·s]
288.15 K	869.66	1.3988	24.4	0.853
298.15 K	859.78	1.39401	23.5	0.739
308.15 K	849.83	1.38931	22.5	0.642
318.15 K	839.81	1.38458	21.6	0.566
328.15 K	829.71	1.37978	20.7	0.504
338.15 K	819.52	1.37492	19.6	0.452
348.15 K	809.2	1.37002	18.7	0.408
358.15 K	798.73	1.36524	17.6	0.367

CCCC(=O)OCCC(C)C [3-methylbutyl butanoate]
Conditions	mass density, [2] [kg/m3]	refractive index, [1]	surface tension liquid-gas, [2] [mN/m]	viscosity, [2] [mPa·s]
288.15 K	867.72	1.41259	25.7	1.317
298.15 K	858.69	1.40815	24.7	1.111
308.15 K	849.62	1.40374	24	0.952
318.15 K	840.55	1.39927	23.1	0.827
328.15 K	831.47	1.39506	22.4	0.724
338.15 K	822.35	1.39055	21.6	0.641
348.15 K	813.19	1.386	20.5	0.573
358.15 K	803.96	1.38139	19.7	0.511

CCOC(=O)CC(C)=O [ethyl 3-oxobutanoate]
Conditions	mass density, [2] [kg/m3]	refractive index, [1]	surface tension liquid-gas, [2] [mN/m]	viscosity, [2] [mPa·s]
288.15 K	1033.92	1.42091	33.3	1.902
298.15 K	1023.45	1.41658	32.3	1.581
308.15 K	–	1.41246	31.1	1.344
318.15 K	–	1.40803	30	1.144
328.15 K	992.26	1.40386	29.1	0.981
338.15 K	981.58	1.39949	28.2	0.847
348.15 K	971.05	1.3951	27	0.736
358.15 K	960.46	1.39061	26.1	0.644

CCC(=O)OCc1ccccc1 [benzyl propanoate]
Conditions	mass density, [2] [kg/m3]	refractive index, [1]	surface tension liquid-gas, [2] [mN/m]	viscosity, [2] [mPa·s]
288.15 K	1036.86	1.4995	36	2.55
298.15 K	1027.6	1.49498	34.8	2.123
308.15 K	1018.38	1.49074	33.6	1.787
318.15 K	1009.15	1.48611	32.4	1.515
328.15 K	999.93	1.48171	31.6	1.294
338.15 K	990.72	1.47711	30.5	1.114
348.15 K	981.49	1.47252	29.5	0.964
358.15 K	972.25	1.46768	28.5	0.84

CCCCCC(=O)OCC [ethyl hexanoate]
Conditions	mass density, [2] [kg/m3]	refractive index, [1]	surface tension liquid-gas, [2] [mN/m]	viscosity, [2] [mPa·s]
288.15 K	875.64	1.4095	26.4	1.102
298.15 K	866.29	1.40504	25.4	0.94
308.15 K	856.91	1.40055	24.5	0.814
318.15 K	847.5	1.39597	23.6	0.711
328.15 K	838.05	1.39164	22.7	0.63
338.15 K	828.55	1.38705	21.8	0.562
348.15 K	818.99	1.38239	21	0.504
358.15 K	809.34	1.37768	20	0.452

CC(=O)OCc1ccccc1 [benzyl ethanoate]
Conditions	mass density, [2] [kg/m3]	refractive index, [1]	surface tension liquid-gas, [2] [mN/m]	viscosity, [2] [mPa·s]
288.15 K	1060.11	1.50439	37.7	2.53
298.15 K	1050.75	1.49982	36.4	2.056
308.15 K	1041.39	1.49539	35.3	1.703
318.15 K	1032.03	1.49064	34.1	1.432
328.15 K	1022.67	1.48623	33.2	1.229
338.15 K	1013.29	1.48157	32.2	1.059
348.15 K	1003.89	1.47701	31.1	0.941
358.15 K	994.45	1.47233	30.1	0.826

CC(=O)OCCC(C)C [3-methylbutyl ethanoate]
Conditions	mass density, [2] [kg/m3]	refractive index, [1]	surface tension liquid-gas, [2] [mN/m]	viscosity, [2] [mPa·s]
288.15 K	877.72	1.40288	25.4	0.94
298.15 K	867.91	1.39836	24.3	0.804
308.15 K	858.07	1.39365	23.4	0.704
318.15 K	848.17	1.38895	22.4	0.627
328.15 K	838.22	1.38447	21.6	0.559
338.15 K	828.19	1.37971	20.6	0.484
348.15 K	818.07	1.37487	19.6	0.434
358.15 K	807.85	1.36995	18.7	0.39

COC(=O)c1ccccc1 [methyl benzoate]
Conditions	mass density, [2] [kg/m3]	refractive index, [1]	surface tension liquid-gas, [2] [mN/m]	viscosity, [2] [mPa·s]
288.15 K	1093.23	1.51915	38.6	2.297
298.15 K	1083.92	1.51467	37.2	1.851
308.15 K	1074.34	1.50993	35.8	1.531
318.15 K	1064.62	1.50514	34.8	1.297
328.15 K	1054.82	1.50058	33.7	1.108
338.15 K	1044.99	1.49584	32.5	0.97
348.15 K	1035.23	1.49107	31.3	0.852
358.15 K	1025.6	1.48624	30.4	0.75
